Laboratory results: PubChem BioAssay AID1963867 (Molecular Pharmacology Branch, DTP, NCI, 2024)
pIC50: −log10 of the molar value.

Test system: KRAS-mutant PDC tumor spheroid with HUVEC/MSC, viability
Assay: Anticancer human tumor 327498-153-R-J2-PDC patient-derived uterine carcinosarcoma cell line growth inhibition [KRAS2]
Conditions: for pIC50: curve of first compound; for viability, T/C: stronger effect = lower value; active means viability on the fitted dose curve at most 10% of control; inactive means the rest
How it was run: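 KRAS-mutant tumor cells were grown as spheroids with HUVEC endothelial cells and human MSCs as stroma. Targeted agents were tested alone and with KRAS pathway inhibitors. Doses started at or near clinical Cmax, or 10 microM, descending half-log.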

[1] = second compound 0.0316 µM, first compound 0.0316 µM
[2] = second compound 0.0316 µM, first compound 0.1 µM
[3] = second compound 0.0316 µM, first compound 0.316 µM
[4] = second compound 0.0316 µM, first compound 1 µM
[5] = second compound 0.1 µM, first compound 0.00316 µM
[6] = second compound 0.1 µM, first compound 0.01 µM
[7] = second compound 0.1 µM, first compound 0.0316 µM
[8] = second compound 0.1 µM, first compound 0.1 µM
[9] = second compound 0.1 µM, first compound 0.316 µM
[10] = second compound 0.1 µM, first compound 1 µM
[11] = second compound 0.316 µM, first compound 0.00316 µM
[12] = second compound 0.316 µM, first compound 0.01 µM
[13] = second compound 0.316 µM, first compound 0.0316 µM
[14] = second compound 0.316 µM, first compound 0.1 µM
[15] = second compound 0.316 µM, first compound 0.316 µM
[16] = second compound 0.316 µM, first compound 1 µM
[17] = second compound 1 µM, first compound 0.00316 µM
[18] = second compound 1 µM, first compound 0.01 µM
[19] = second compound 1 µM, first compound 0.0316 µM
[20] = second compound 1 µM, first compound 0.1 µM
[21] = second compound 1 µM, first compound 0.316 µM
[22] = second compound 1 µM, first compound 1 µM
[23] = second compound 3.16 µM, first compound 0.00316 µM
[24] = second compound 3.16 µM, first compound 0.01 µM
[25] = second compound 3.16 µM, first compound 0.0316 µM
[26] = second compound 3.16 µM, first compound 0.1 µM
[27] = second compound 3.16 µM, first compound 0.316 µM
[28] = second compound 3.16 µM, first compound 1 µM
[29] = second compound 0.1 µM, first compound 3.16 µM
[30] = second compound 0.1 µM, first compound 10 µM
[31] = second compound 1 µM, first compound 3.16 µM
[32] = second compound 1 µM, first compound 10 µM
[33] = second compound 3.16 µM, first compound 3.16 µM
[34] = second compound 3.16 µM, first compound 10 µM
[35] = second compound 0.316 µM, first compound 3.16 µM
[36] = second compound 10 µM, first compound 0.0316 µM
[37] = second compound 10 µM, first compound 0.1 µM
[38] = second compound 10 µM, first compound 0.316 µM
[39] = second compound 10 µM, first compound 1 µM
[40] = second compound 10 µM, first compound 3.16 µM
[41] = second compound 10 µM, first compound 0.01 µM
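Further: spheroids exposed to agents for seven days before reading.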
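Wherever viability, T/C is given: 100% = DMSO vehicle wells so lower means fewer viable cells.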

CCN1CCN(Cc2ccc(Nc3ncc(F)c(-c4cc(F)c5nc(C)n(C(C)C)c5c4)n3)nc2)CC1 + C=CC(=O)N1CCN(c2nc(OCC3CCCN3C)nc3c2CCN(c2cccc4cccc(C)c24)C3)CC1CC#N
> 8.50: pIC50 (second compound 0.0316 µM) | pIC50 (second compound 0.1 µM) | pIC50 (second compound 0.316 µM) | pIC50 (second compound 1 µM) | pIC50 (second compound 3.16 µM)
inactive: viability, T/C (second compound 0.0316 µM, first compound 0.00316 µM) 55.9% | viability, T/C (second compound 0.0316 µM, first compound 0.01 µM) 46.6% | viability, T/C [1] 33.4% | viability, T/C [2] 35.2% | viability, T/C [3] 34.5% | viability, T/C [4] 40.4% | viability, T/C [5] 49.1% | viability, T/C [6] 35.4% | viability, T/C [7] 28.2% | viability, T/C [8] 34.2% | viability, T/C [9] 33.7% | viability, T/C [10] 36.4% | viability, T/C [11] 40.5% | viability, T/C [12] 33.1% | viability, T/C [13] 30.1% | viability, T/C [14] 24% | viability, T/C [15] 33.3% | viability, T/C [16] 37.9% | viability, T/C [17] 31.1% | viability, T/C [18] 23.1% | viability, T/C [19] 21.1% | viability, T/C [20] 19.3% | viability, T/C [21] 23.5% | viability, T/C [22] 13.5%
active: viability, T/C [23] 1.79% | viability, T/C [24] 0.22% | viability, T/C [25] 0.46% | viability, T/C [26] 0.84% | viability, T/C [27] 0.58% | viability, T/C [28] 0.24%

CCNC(=O)CC1N=C(c2ccc(Cl)cc2)c2cc(OC)ccc2-n2c(C)nnc21 (stereo not drawn) + C=CC(=O)N1CCN(c2nc(OCC3CCCN3C)nc3c2CCN(c2cccc4cccc(C)c24)C3)CC1CC#N
6.66: pIC50 (second compound 0.1 µM)
active: viability, T/C [25] 1.66% | viability, T/C [26] 2.31% | viability, T/C [27] 1.02% | viability, T/C [28] 0.22% | viability, T/C [33] 2.19% | viability, T/C [34] 0.39%
> 7.50: pIC50 (second compound 1 µM) | pIC50 (second compound 3.16 µM)
inactive: viability, T/C [1] 72.8% | viability, T/C [2] 75.9% | viability, T/C [3] 51.8% | viability, T/C [4] 47.1% | viability, T/C (second compound 0.0316 µM, first compound 3.16 µM) 36.5% | viability, T/C (second compound 0.0316 µM, first compound 10 µM) 27% | viability, T/C [7] 55.9% | viability, T/C [8] 58.4% | viability, T/C [9] 46.2% | viability, T/C [10] 36.9% | viability, T/C [29] 31.9% | viability, T/C [30] 22.4% | viability, T/C [19] 48.8% | viability, T/C [20] 41.7% | viability, T/C [21] 36.4% | viability, T/C [22] 27.9% | viability, T/C [31] 25.1% | viability, T/C [32] 18.9%
6.18: pIC50 (second compound 0.0316 µM)

CC1(C)CCC(CN2CCN(c3ccc(C(=O)NS(=O)(=O)c4ccc(NCC5CCOCC5)c([N+](=O)[O-])c4)c(Oc4cnc5[nH]ccc5c4)c3)CC2)=C(c2ccc(Cl)cc2)C1 + C=CC(=O)N1CCN(c2nc(=O)n(-c3c(C)ccnc3C(C)C)c3nc(-c4c(O)cccc4F)c(F)cc23)C(C)C1
active: viability, T/C [30] 1.21% | viability, T/C (second compound 0.316 µM, first compound 10 µM) 6.41% | viability, T/C [32] 1.34% | viability, T/C [34] 0.58% | viability, T/C (second compound 10 µM, first compound 10 µM) 2.01%
5.89: pIC50 (second compound 0.1 µM)
> 7.50: pIC50 (second compound 10 µM)
5.76: pIC50 (second compound 0.316 µM)
inactive: viability, T/C [7] 65.7% | viability, T/C [8] 61.1% | viability, T/C [9] 54% | viability, T/C [10] 57.4% | viability, T/C [29] 36.5% | viability, T/C [13] 57% | viability, T/C [14] 54.5% | viability, T/C [15] 58.1% | viability, T/C [16] 57.5% | viability, T/C [35] 42.7% | viability, T/C [19] 60.7% | viability, T/C [20] 55.2% | viability, T/C [21] 57.4% | viability, T/C [22] 52.2% | viability, T/C [31] 44.3% | viability, T/C [25] 52.6% | viability, T/C [26] 53.5% | viability, T/C [27] 53.2% | viability, T/C [28] 52.6% | viability, T/C [33] 37.4% | viability, T/C [36] 43.2% | viability, T/C [37] 41.6% | viability, T/C [38] 37.8% | viability, T/C [39] 46.5% | viability, T/C [40] 10.5%
5.80: pIC50 (second compound 1 µM)
5.92: pIC50 (second compound 3.16 µM)

CC(=O)OC12COC1CC(O)C1(C)C(=O)C(O)C3=C(C)C(OC(=O)C(O)C(NC(=O)OC(C)(C)C)c4ccccc4)CC(O)(C(OC(=O)c4ccccc4)C21)C3(C)C (stereo not drawn) + CNCc1ccccc1-c1csc(C(C)Nc2nc(C)nc3cc(OC)c(OC)cc23)c1
active: viability, T/C [6] 7.46% | viability, T/C [7] 5.57% | viability, T/C [8] 5.61% | viability, T/C [9] 7.57% | viability, T/C [10] 8.63% | viability, T/C [29] 13.1% | viability, T/C [12] 7.41% | viability, T/C [13] 5.76% | viability, T/C [14] 8.79% | viability, T/C [15] 6.37% | viability, T/C [16] 9.11% | viability, T/C [35] 10.8% | viability, T/C [18] 9.89% | viability, T/C [19] 6.01% | viability, T/C [20] 6.6% | viability, T/C [21] 7.2% | viability, T/C [22] 11% | viability, T/C [31] 10.6% | viability, T/C [24] 8.09% | viability, T/C [25] 0.04% | viability, T/C [26] 0.03% | viability, T/C [27] 0.04% | viability, T/C [28] 0.48% | viability, T/C [33] 10.4% | viability, T/C [41] 0.78% | viability, T/C [36] 0.42% | viability, T/C [37] 2.08% | viability, T/C [38] 0.12% | viability, T/C [39] 10.2% | viability, T/C [40] 0.25%
> 8.00: pIC50 (second compound 0.1 µM) | pIC50 (second compound 0.316 µM) | pIC50 (second compound 1 µM) | pIC50 (second compound 3.16 µM) | pIC50 (second compound 10 µM)

CC(=O)Nc1cccc(-n2c(=O)n(C3CC3)c(=O)c3c(Nc4ccc(I)cc4F)n(C)c(=O)c(C)c32)c1 + C=CC(=O)N1CCN(c2nc(=O)n(-c3c(C)ccnc3C(C)C)c3nc(-c4c(O)cccc4F)c(F)cc23)C(C)C1
8.22: pIC50 (second compound 0.1 µM)
8.31: pIC50 (second compound 1 µM)
8.62: pIC50 (second compound 3.16 µM)
inactive: viability, T/C (second compound 0.1 µM, first compound 0.0001 µM) 70.5% | viability, T/C (second compound 0.1 µM, first compound 0.000316 µM) 60.1% | viability, T/C (second compound 0.1 µM, first compound 0.001 µM) 61.5% | viability, T/C [5] 57.9% | viability, T/C [6] 45.2% | viability, T/C [7] 16.2% | viability, T/C (second compound 0.316 µM, first compound 0.0001 µM) 65.7% | viability, T/C (second compound 0.316 µM, first compound 0.000316 µM) 67.2% | viability, T/C (second compound 0.316 µM, first compound 0.001 µM) 57.6% | viability, T/C [11] 51.5% | viability, T/C [12] 37.7% | viability, T/C [13] 14.5% | viability, T/C (second compound 1 µM, first compound 0.0001 µM) 60% | viability, T/C (second compound 1 µM, first compound 0.000316 µM) 63% | viability, T/C (second compound 1 µM, first compound 0.001 µM) 56.3% | viability, T/C [17] 53.1% | viability, T/C [18] 44.4% | viability, T/C [19] 13.3% | viability, T/C (second compound 3.16 µM, first compound 0.0001 µM) 60.7% | viability, T/C (second compound 3.16 µM, first compound 0.000316 µM) 57.2% | viability, T/C (second compound 3.16 µM, first compound 0.001 µM) 54.5% | viability, T/C [23] 49.4% | viability, T/C [24] 31.9% | viability, T/C [25] 15.3% | viability, T/C (second compound 10 µM, first compound 0.0001 µM) 46.5% | viability, T/C (second compound 10 µM, first compound 0.000316 µM) 47.7% | viability, T/C (second compound 10 µM, first compound 0.001 µM) 45.1% | viability, T/C (second compound 10 µM, first compound 0.00316 µM) 41.2% | viability, T/C [41] 24.1% | viability, T/C [36] 13.4%
8.45: pIC50 (second compound 0.316 µM)
> 10.00: pIC50 (second compound 10 µM)
